From patent publication US20050113413A1, “Naphthalene-1,5-disulfonic acid salts of a substituted 4-amino-1-(pyridylmethyl)piperidine compound” (priority 2003, published 2005)

Columns and labels:
[1] = molecular target: T1, hM3 muscarinic receptor subtype (Homo sapiens, UniProt P20309); assay: Radioligand binding assay ([3H]NMS displacement), hM3 relative to hM2; conditions: ratio of Ki values
T1 construct: expressed in transfected cells; membranes prepared
Description: (§1) CHO (Chinese hamster ovary) cell lines stabilely expressing cloned human hM1, hM2, hM3 and hM4 muscarinic receptor subtypes, respectively, were grown to near confluency in medium consisting of HAM's F-12 supplemented with 10% FBS (Fetal Bovine Serum) and 250 μg/mL Geneticin. The cells were grown in a 5% CO2, 37° C. incubator and lifted with dPBS+2 mM EDTA. Cells were collected by 5 minute centrifugation at 650×g, and cell pellets were either stored frozen at −80° C. or membranes were prepared immediately. For membrane preparation, cell pellets were resuspended in lysis buffer and homogenized with a Polytron PT-2100 tissue disrupter (Kinematica AG; 20 seconds×2 bursts). Crude membranes were centrifuged at 40,000×g for 15 minutes at 4° C. […] Protein concentration of the membrane suspension was determined by the method of Lowry, O. et al., (1951) Journal of Biochemistry: 193, 265. […]
(§2) Radioligand binding assays were performed in 96-well microtiter plates in a total assay volume of 100 μL. […] Filter plates were rinsed three times with wash buffer (10 mM HEPES) to remove unbound radioactivity. […] The plates were then counted in a PerkinElmer Topcount liquid scintillation counter (PerkinElmer Inc., Wellesley, Mass.). Binding data were analyzed by nonlinear regression analysis with the GraphPad Prism Software package (GraphPad Software, Inc., San Diego, Calif.) using the one-site competition model. […]

[2] = molecular target: T2, hM2 muscarinic receptor subtype (Homo sapiens, UniProt P08172); assay: Radioligand binding assay ([3H]NMS displacement), hM2; conditions: [3H]NMS at 1 nM, CHO cell membranes, 60 minutes at 37° C.
T2 construct: expressed in transfected cells; membranes prepared
T2 sequence (P08172 1-466): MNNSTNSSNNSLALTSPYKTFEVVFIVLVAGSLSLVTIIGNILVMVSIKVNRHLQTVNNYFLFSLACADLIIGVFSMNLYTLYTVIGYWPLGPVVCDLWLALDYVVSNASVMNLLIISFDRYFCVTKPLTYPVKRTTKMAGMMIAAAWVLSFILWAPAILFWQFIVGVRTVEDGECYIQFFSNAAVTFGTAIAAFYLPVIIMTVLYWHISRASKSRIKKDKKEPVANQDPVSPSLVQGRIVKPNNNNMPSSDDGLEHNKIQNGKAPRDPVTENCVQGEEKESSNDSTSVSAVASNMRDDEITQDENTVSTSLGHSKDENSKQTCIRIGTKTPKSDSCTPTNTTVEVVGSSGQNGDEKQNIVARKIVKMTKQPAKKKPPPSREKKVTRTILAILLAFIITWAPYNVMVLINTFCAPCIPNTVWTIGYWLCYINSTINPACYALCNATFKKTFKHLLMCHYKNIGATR
Description: as §1, §2

T1 sequence (P20309 whole entry): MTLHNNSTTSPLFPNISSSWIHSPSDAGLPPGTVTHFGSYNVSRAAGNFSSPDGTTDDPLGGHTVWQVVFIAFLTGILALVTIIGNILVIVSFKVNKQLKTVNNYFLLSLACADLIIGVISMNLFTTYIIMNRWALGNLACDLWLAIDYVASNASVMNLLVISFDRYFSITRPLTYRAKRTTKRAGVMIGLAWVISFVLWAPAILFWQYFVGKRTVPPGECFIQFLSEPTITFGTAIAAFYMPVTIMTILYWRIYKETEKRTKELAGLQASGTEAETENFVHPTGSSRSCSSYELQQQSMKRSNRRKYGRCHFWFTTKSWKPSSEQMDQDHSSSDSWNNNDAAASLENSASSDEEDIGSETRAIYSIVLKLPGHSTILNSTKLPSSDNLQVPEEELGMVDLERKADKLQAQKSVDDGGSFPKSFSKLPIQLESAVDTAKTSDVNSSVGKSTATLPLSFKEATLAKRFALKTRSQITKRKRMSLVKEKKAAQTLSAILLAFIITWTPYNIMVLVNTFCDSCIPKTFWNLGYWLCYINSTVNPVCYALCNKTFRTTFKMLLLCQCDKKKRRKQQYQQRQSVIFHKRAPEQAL

Question: With `COc1ccncc1CN1CCC(N(CCCCCCCN2CC[C@@H](C(C(N)=O)(c3ccccc3)c3ccccc3)C2)C(C)C)CC1` [Example 6] as the compound, how does the hM3/hM2 ratio [1] read?
Answer: The hM3/hM2 ratio was “greater than 40”.

Question: And the Ki [2]?
Answer: The Ki was under 1 nM.
